Measurements taken from patent publication US10111831B2, “Chewable vehicle for mouth absorption” (TECHNOLOGIES KHLOROS INC., priority 2011, dated 2018).

Key:
[1] = Release of yohimbine from chewing gum masticated in water or artificial saliva; assay type: physicochemical; details: gum with Corynanthe yohimbe bark extract (8% yohimbine), artificially masticated 120 seconds in 10 ml, chromatography
Procedure: • Chewing gums are prepared following example xx, containing a bark extract of Corynanthe yohimbe (containing 8% of yohimbine); • Gums are artificially masticated for 120 seconds in 10 ml of water or artificial saliva; • The quantity of released yohimbine is analysed by chromatography.

[2] = Liberation of riboflavin from functional gel, passive vs artificial mastication; assay type: physicochemical; details: Khlôros functional gel, 0.9% riboflavin, 10 ml H2O/gel, after 60 seconds, detection at 445 nm
Procedure: • Material: • Khlôros functional gel (see examples I and II); • 0.9% Riboflavin; • Reactional media: 10 ml of H2O/gel; • Passive liberation of active ingredient (Riboflavin): no treatment on the gel; • Artificial mastication (active liberation): mimic the action of mastication →compression and soft shearing;
Detection of the liberation of riboflavin and conversion in mM by the spectroscopic evaluation at 445 nm.

Compound | quantity of yohimbine released, masticated in saliva versus water [1] | liberation of riboflavin after artificial mastication compared to passive liberation [2] [times]
COC(=O)[C@@H]1[C@H]2C[C@H]3c4[nH]c5ccccc5c4CCN3C[C@@H]2CC[C@@H]1O [yohimbine] | more than 5 time | 
Cc1cc2nc3c(=O)[nH]c(=O)nc-3n(C[C@H](O)[C@H](O)[C@H](O)CO)c2cc1C [riboflavin, Riboflavin] |  | 23
